From patent US20070059773A1, “Identification of therapeutic compounds” (priority 2003, published 2007)
Values after ≈ are worked out from the molar mass of the structure shown. Where two headings read alike, the source gives them in different places. Each block holds one compound with its values, some of them ahead of it.

Columns and labels:
[1] = target: T1, rat cortex A1 receptor (Rattus norvegicus, UniProt P25099); assay: Displacement of 3H-DPCPX from the rat cortex A1 receptor; assay type: binding
T1 construct: from tissue; host or cells: rat cortex
T1 sequence (P25099 1-326): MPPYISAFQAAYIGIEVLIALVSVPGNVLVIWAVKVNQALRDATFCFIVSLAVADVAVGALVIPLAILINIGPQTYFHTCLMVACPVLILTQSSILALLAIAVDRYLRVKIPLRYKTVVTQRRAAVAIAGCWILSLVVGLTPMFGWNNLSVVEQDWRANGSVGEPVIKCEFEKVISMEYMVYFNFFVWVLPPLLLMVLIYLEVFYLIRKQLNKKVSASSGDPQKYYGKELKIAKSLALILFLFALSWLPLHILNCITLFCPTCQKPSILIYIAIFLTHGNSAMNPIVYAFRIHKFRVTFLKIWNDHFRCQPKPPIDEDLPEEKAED

[2] = target: T2, rat striatal A2A receptor (Rattus norvegicus, UniProt P30543); details: for number of affinity states revealed: Tables 1 and 2; for number of affinity states revealed / effect of GTP on the high affinity states: lower pH; for high affinity states as proportion of the total number of binding sites: lower pH (5.5); for effect of GTP on the high affinity states: presence of GTP
T2 sequence (P30543 whole entry): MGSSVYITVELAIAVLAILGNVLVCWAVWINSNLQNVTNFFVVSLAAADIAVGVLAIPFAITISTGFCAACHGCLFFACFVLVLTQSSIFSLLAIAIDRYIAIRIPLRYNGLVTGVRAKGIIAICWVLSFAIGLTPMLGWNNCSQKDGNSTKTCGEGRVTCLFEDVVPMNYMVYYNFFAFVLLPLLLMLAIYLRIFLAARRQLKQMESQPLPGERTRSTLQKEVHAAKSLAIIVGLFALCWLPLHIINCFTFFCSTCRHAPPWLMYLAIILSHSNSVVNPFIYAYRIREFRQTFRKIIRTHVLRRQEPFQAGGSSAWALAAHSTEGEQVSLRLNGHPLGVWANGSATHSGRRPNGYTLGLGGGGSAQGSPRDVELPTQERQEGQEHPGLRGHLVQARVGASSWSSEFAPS

[3] = target: T2, rat striatal A2A receptor; assay: biochemical
[4] = tested on: thermal hyperalgesia caused by chronic constriction injury of the rat sciatic nerve; assay: Chronic constriction injury model of neuropathic pain; assay type: in vivo; details: 0.624 mg/kg p.o., compared with carbamazepine 100 mg/kg s.c.
Description: After approximately two weeks the rats developed thermal hyperalgesia in the operated leg as judged by the difference in paw withdrawal latencies of the right and left paws.

[5] = Blood pressure and heart rate by implanted radiotelemetry; assay type: in vivo; details: 0.624 mg/kg p.o., rat
Protocol: An implantable radiotelemetry device was placed in the abdominal cavity of 6 rats per group. The pressure catheter of the device was inserted in the abdominal aorta and two electrodes tunnelised under the skin in a lead II position (left side of abdominal cavity/right shoulder). Individual rats were placed in their own cage on a radioreceptor (DSI) for data acquisition. The effect of 0.6 mg/kg 2 methoxyadenosine or vehicle (p.o.) on blood pressure was then assessed. The results are shown in FIG. 5: A: blood pressure; B: heart rate.

[6] = 20 mg/kg po; cited from earlier work
[7] = Plasma concentration after administration; details: rat, in vivo
[8] = target: adenosine A2A receptor; details: cited from earlier work
[9] = tested on: carrageenan (CGN) induced inflammation; assay: Carrageenan induced inflammation (paw volume by plethysmometry); assay type: in vivo; details: 62.4 and 624 μg/kg i.p.; compared with indomethacin 3 mg/kg po
Protocol: Carrageenan (2%, 10 microlitres) was administered into the right hind paw, and the paw volume assessed by plethysomometry. 2-methoxyadenosine was administered at the same time as carrageenan.

[10] = tested on: carageenan-induced inflammation; details: rats, 20 mg/kg po; cited from earlier work
[11] = tested on: carrageenan (CGN) induced thermal hyperalgesia; assay: Carrageenan induced thermal hyperalgesia (paw withdrawal latency); assay type: in vivo; details: 0.6 mg/kg, given with carrageenan; compared with indomethacin 3 mg/kg po
Protocol: Carrageenan (2%, 10 microlitres) was administered into the right hind paw. A heat source was placed close to the treated and untreated hind paws, and the difference in the paw withdrawal latencies is shown. 2-methoxyadenosine was administered at the same time as carrageenan.

[12] = target: T3, human A2A receptor (Homo sapiens, UniProt P29274); assay: cAMP accumulation in HEK293 cells expressing the human A2A receptor; assay type: cell-based
T3 construct: expressed in transfected cells; host or cells: HEK293
T3 sequence (P29274 whole entry): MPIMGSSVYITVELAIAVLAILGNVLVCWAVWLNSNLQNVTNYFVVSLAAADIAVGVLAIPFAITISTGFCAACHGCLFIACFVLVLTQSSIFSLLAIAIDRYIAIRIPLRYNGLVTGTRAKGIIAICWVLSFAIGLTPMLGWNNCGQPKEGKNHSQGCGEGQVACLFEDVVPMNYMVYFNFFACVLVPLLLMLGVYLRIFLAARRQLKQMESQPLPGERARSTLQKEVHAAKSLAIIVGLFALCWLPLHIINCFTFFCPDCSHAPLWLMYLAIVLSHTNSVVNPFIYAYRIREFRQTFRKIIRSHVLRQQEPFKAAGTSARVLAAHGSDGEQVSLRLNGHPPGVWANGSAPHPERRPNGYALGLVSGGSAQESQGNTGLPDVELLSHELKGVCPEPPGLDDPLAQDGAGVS
Description: The human A2A receptor was expressed in HEK293 cells, and the ability of agonists to stimulate cAMP accumulation assessed in the presence of rolipram to inhibit phosphodiesterase enzymes.

[13] = target: T4, human A1 receptor (Homo sapiens, UniProt P30542); assay: Displacement of [3H]-DPCPX from the human A1 receptor; assay type: binding; details: read-out: Ki high affinity sites
T4 sequence (P30542 1-326): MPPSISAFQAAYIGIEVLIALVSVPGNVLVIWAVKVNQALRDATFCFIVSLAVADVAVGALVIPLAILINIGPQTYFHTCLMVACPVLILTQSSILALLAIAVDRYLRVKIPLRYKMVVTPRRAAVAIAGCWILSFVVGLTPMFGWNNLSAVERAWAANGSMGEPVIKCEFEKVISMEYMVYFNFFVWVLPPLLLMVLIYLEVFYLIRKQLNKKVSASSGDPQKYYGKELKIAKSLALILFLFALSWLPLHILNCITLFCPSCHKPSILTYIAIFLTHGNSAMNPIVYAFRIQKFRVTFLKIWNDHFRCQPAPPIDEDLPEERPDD
Description: Compounds that show a decrease in efficacy are likely to act as low efficacy partial agonists.

[14] = tested on: isolated perfused superior mesenteric arterial bed of the rat; details: pH of the perfusate reduced to 6.8; cited from earlier work
[15] = pH 6.2, read-out: Ki High affinity
[16] = pH 6.2, read-out: Ki Low affinity
[17] = pH 7.4, read-out: Ki High affinity
[18] = pH 7.4, read-out: Ki Low affinity

number of affinity states revealed [2]: two apparent affinity states
high affinity states as proportion of the total number of binding sites [2]: approximately 25%
effect of GTP on the high affinity states [2]: abolished
Ki ([3]; Ki High affinity, pH 5.5): 2.8 nM
Ki ([3]; Ki High affinity, pH 7.4): 245 nM
Ki ([3]; Ki Low affinity, pH 5.5): 1200 nM
Ki ([3]; Ki Low affinity, pH 7.4): 6600 nM
Compound: CCOc1nc(N)c2ncn([C@@H]3O[C@H](CO)[C@@H](O)[C@H]3O)c2n1 [2-ethoxyadenosine]

number of affinity states revealed [2]: two apparent affinity states
high affinity states as proportion of the total number of binding sites [2]: approximately 25%
Ki High affinity ([2]; pH 7.4): High affinity not detectable
change of affinity as the pH is reduced ([2]; pH from 7.4 to 7.0 to 6.8, FIG. 2): increases as the pH is reduced
effect of GTP on the high affinity states [2]: abolished
Ki ([3]; Ki High affinity, pH 5.5): 12.1 nM
Ki ([3]; Ki Low affinity, pH 5.5): 1200 nM
Ki ([3]; Ki Low affinity, pH 7.4): 2500 nM
efficacy at pH7.0 compared to pH7.4 ([12]; cAMP accumulation in the presence of rolipram): Increased
increase in efficacy at the adenosine A2A receptor ([12]; pH7.0 compared to pH7.4, FIG. 3): approximately 100 fold
Compound: COc1nc(N)c2ncn([C@@H]3O[C@H](CO)[C@@H](O)[C@H]3O)c2n1 [2-methoxyadenosine]
thermal hyperalgesia, chronic constriction injury [4]: inhibits
effect on blood pressure [5]: no Significant Effect
effect on heart rate [5]: no Significant Effect
reduction in heart rate [6]: 25%
reduction in mean blood pressure [6]: 41%
plasma concentration with profound anti-hyperalgesic and anti-inflammatory activity [7]: ≤ 0.2 µM
EC50 ([8]; Daly et al. 1993, read-out: EC50 at the adenosine A2A receptor): 3000 nM
EC50 at adenosine receptors ([8]; measured at pH7.4): 0.9 µg/mL (≈ 3.03 µM)
EC50 ([8]; measured at pH7.4, read-out: EC50 at adenosine receptors): 3000 nM
carrageenan induced inflammation (paw volume) [9]: Inhibits
inhibition of carageenan-induced inflammation [10]: 25%
carrageenan induced thermal hyperalgesia [11]: inhibits

The remaining lines, values behind:

Compound: Nc1nc(Cl)nc2c1ncn2[C@@H]1O[C@H](CO)[C@@H](O)[C@H]1O [2-chloroadenosine, reference compound]
Ki [1, 15]: 3.7 nM
Ki [1, 16]: 1660 nM
Ki [1, 17]: 4.4 nM
Ki [1, 18]: 1670 nM

Compound: Nc1nc(Cl)nc2c1ncn2[C@@H]1O[C@H](CO)C[C@H]1O [3′-deoxy-2-chloroadenosine]
effect of GppNHp on the high affinity state ([1]; both pH values (7.4 and 6.2)): abolished
Ki [1, 15]: 17 nM
Ki [1, 16]: 13400 nM
Ki [1, 17]: 227 nM
Ki [1, 18]: 11500 nM

Compound: COc1nc(N)c2ncn([C@@H]3O[C@H](CO)C[C@H]3O)c2n1 [3′-deoxy-2-methoxyadenosine]
Ki ([13]; pH 6.2): 405 ± 114 nM
Ki ([13]; pH 7.4): 158 ± 85 nM

Compound: Nc1nc(Nc2ccccc2)nc2c1ncn2[C@@H]1O[C@H](CO)[C@@H](O)[C@H]1O [CV1808, 2-phenylamino-adenosine, reference compound]
Ki ([3]; Ki, pH5.5, one affinity state): 35 ± 9 nM
Ki ([3]; Ki, pH 7.4, one affinity state): 170 ± 20 nM

Compound: Nc1ncnc2c1ncn2[C@@H]1O[C@H](CO)[C@@H](O)[C@H]1O [adenosine]
enhancement of dilator responses [14]: 10 fold
